According to PubChem BioAssay (NCI):
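96-well plates; 48 h exposure; 5 concentrations. Endpoints by linear interpolation between flanking doses. Not reached: highest tested concentration assigned. TGI is the concentration that stops growth completely.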

Experiments:
Assay in all cases: NCI tumour cell line growth inhibition, 48 h
HOP-62 NSCLC = test system: HOP-62 NSCLC
M19-MEL melanoma = test system: M19-MEL melanoma
SNB-19 CNS = test system: SNB-19 CNS
SK-MEL-28 melanoma = test system: SK-MEL-28 melanoma
HT29 colon = test system: HT29 colon
DLD-1 colon = test system: DLD-1 colon
UACC-62 melanoma = test system: UACC-62 melanoma
LXFL 529 NSCLC = test system: LXFL 529 NSCLC
SK-MEL-5 melanoma = test system: SK-MEL-5 melanoma
CCRF-CEM leukemia = test system: CCRF-CEM leukemia
A498 renal = test system: A498 renal
SR leukemia = test system: SR leukemia
IGROV1 ovarian = test system: IGROV1 ovarian
HOP-92 NSCLC = test system: HOP-92 NSCLC
SF-295 CNS = test system: SF-295 CNS
HCT-116 colon = test system: HCT-116 colon
COLO 205 colon = test system: COLO 205 colon
SK-MEL-2 melanoma = test system: SK-MEL-2 melanoma
OVCAR-3 ovarian = test system: OVCAR-3 ovarian
CAKI-1 renal = test system: CAKI-1 renal
RPMI-8226 leukemia = test system: RPMI-8226 leukemia
HCC-2998 colon = test system: HCC-2998 colon
MALME-3M melanoma = test system: MALME-3M melanoma
MOLT-4 leukemia = test system: MOLT-4 leukemia
UO-31 renal = test system: UO-31 renal
SF-268 CNS = test system: SF-268 CNS
DMS 273 small cell lung = test system: DMS 273 small cell lung
M14 melanoma = test system: M14 melanoma
U251 CNS = test system: U251 CNS
EKVX NSCLC = test system: EKVX NSCLC
UACC-257 melanoma = test system: UACC-257 melanoma
OVCAR-5 ovarian = test system: OVCAR-5 ovarian
SNB-75 CNS = test system: SNB-75 CNS
KM12 colon = test system: KM12 colon
DMS 114 small cell lung = test system: DMS 114 small cell lung
SN12C renal = test system: SN12C renal
OVCAR-4 ovarian = test system: OVCAR-4 ovarian
A549 NSCLC = test system: A549 NSCLC
SF-539 CNS = test system: SF-539 CNS
SNB-78 CNS = test system: SNB-78 CNS
HOP-18 NSCLC = test system: HOP-18 NSCLC
786-0 renal = test system: 786-0 renal
NCI-H460 lung = test system: NCI-H460 lung
HL-60(TB) leukemia = test system: HL-60(TB) leukemia
NCI-H23 lung = test system: NCI-H23 lung
ACHN renal = test system: ACHN renal
NCI-H522 lung = test system: NCI-H522 lung
K-562 leukemia = test system: K-562 leukemia
SK-OV-3 ovarian = test system: SK-OV-3 ovarian
OVCAR-8 ovarian = test system: OVCAR-8 ovarian
SW-620 colon = test system: SW-620 colon
TK-10 renal = test system: TK-10 renal
NCI-H226 lung = test system: NCI-H226 lung
HCT-15 colon = test system: HCT-15 colon

Measured: TGI

CCCCC1CC(c2ccc(Cl)cc2)=NO1 (centres undefined)
> 100 µM: all assays above
